Data published in patent US12497365B2, “4-pyridinyl formamide compound or derivative thereof, preparation method therefor, herbicidal composition and use thereof” (Qingdao Kingagroot Chemical Compound Co., Ltd., priority 2019, dated 2025).

These compounds were tested on Abutilon theophrasti (assay: Weeding effect in post-emergence stage). Conditions: active ingredient 2000 g/ha, 3 weeks after application, fresh weight control rate.
Assay type: in vivo
Procedure, shortened: (§1)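 Weeds sown in soil-filled pots under 0.5-2 cm cover were grown in a greenhouse and sprayed at the 2-3 leaf stage, 2 weeks after sowing. Compounds in acetone with Tween 80 and 1.5 liter/ha methyl oleate concentrate were applied at 2000, 1000, 500, 250 or 125 g/ha. Fresh weight control rate was scored after 3 weeks.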

| SMILES | Weeding effect, activity level (growth control rate), Abutilon theophrasti |
| --- | --- |
| CCn1nnnc1NC(=O)c1ccnc(-c2ccc(F)cc2)c1Cl [Compound 1-307] | 5 (Level 5: growth control rate is above 85%) |
| Cn1nnnc1NC(=O)c1ccnc(-c2ccc(N3CCOCC3)nc2)c1Cl [Compound 1-146] | 5 (Level 5: growth control rate is above 85%) |
| Cn1nnnc1NC(=O)c1ccnc(-n2cc(F)cn2)c1Cl [Compound 1-166] | 5 (Level 5: growth control rate is above 85%) |
| Cn1nnnc1NC(=O)c1ccnc(-c2cncc(C#N)c2)c1Cl [Compound 1-133] | 5 (Level 5: growth control rate is above 85%) |
| Cn1nnnc1NC(=O)c1ccnc(-c2cccnc2C(F)(F)F)c1Cl [Compound 1-141] | 5 (Level 5: growth control rate is above 85%) |
| Cn1nnnc1NC(=O)c1ccnc(-c2cccc(C#N)n2)c1Cl [Compound 1-120] | 5 (Level 5: growth control rate is above 85%) |
| Cn1nnnc1NC(=O)c1ccnc(-c2ccccc2O)c1Cl [Compound 1-34] | 5 (Level 5: growth control rate is above 85%) |
| COc1ccc(-c2nccc(C(=O)Nc3nnnn3C)c2Cl)c(C)c1 [Compound 1-104] | 5 (Level 5: growth control rate is above 85%) |
| Cn1nnnc1NC(=O)c1ccnc(-c2cccnc2Cl)c1Cl [Compound 1-130] | 5 (Level 5: growth control rate is above 85%) |
| Cn1nnnc1NC(=O)c1ccnc(-c2cccc(CO)c2)c1Cl [Compound 1-36] | 5 (Level 5: growth control rate is above 85%) |
| Cc1ccc(-c2nccc(C(=O)Nc3nnnn3C)c2Cl)c(C)c1 [Compound 1-59] | 5 (Level 5: growth control rate is above 85%) |
| Cn1nnnc1NC(=O)c1ccnc(-c2ccc(C#N)cc2F)c1Cl [Compound 1-78] | 5 (Level 5: growth control rate is above 85%) |
| Cn1nnnc1NC(=O)c1ccnc(-c2cccc3c2oc2ccccc23)c1Cl [Compound 1-116] | 5 (Level 5: growth control rate is above 85%) |
| Cc1conc1NC(=O)c1ccnc(-c2ccc(F)cc2)c1Cl [Compound 1-1577] | 5 (Level 5: growth control rate is above 85%) |
| CCn1cc(-c2nccc(C(=O)Nc3nnnn3C)c2Cl)cn1 [Compound 1-172] | 5 (Level 5: growth control rate is above 85%) |
| Cn1nnnc1NC(=O)c1ccnc(-c2ccc(F)cc2)c1C(F)(F)F [Compound 1-198] | 5 (Level 5: growth control rate is above 85%) |

What follows are compounds tested on Amaranthus retroflexus L. (assay: Weeding effect in post-emergence stage). Conditions: active ingredient 2000 g/ha, 3 weeks after application, fresh weight control rate.
Assay type: in vivo
Procedure, shortened: as §1

| SMILES | Weeding effect, activity level (growth control rate), Amaranthus retroflexus L. |
| --- | --- |
| CCn1nnnc1NC(=O)c1ccnc(-c2ccc(F)cc2)c1Cl [Compound 1-307] | 5 (Level 5: growth control rate is above 85%) |
| Cn1nnnc1NC(=O)c1ccnc(-c2ccc(N3CCOCC3)nc2)c1Cl [Compound 1-146] | 5 (Level 5: growth control rate is above 85%) |
| Cn1nnnc1NC(=O)c1ccnc(-n2cc(F)cn2)c1Cl [Compound 1-166] | 5 (Level 5: growth control rate is above 85%) |
| Cn1nnnc1NC(=O)c1ccnc(-c2cncc(C#N)c2)c1Cl [Compound 1-133] | 5 (Level 5: growth control rate is above 85%) |
| Cn1nnnc1NC(=O)c1ccnc(-c2cccnc2C(F)(F)F)c1Cl [Compound 1-141] | 5 (Level 5: growth control rate is above 85%) |
| Cn1nnnc1NC(=O)c1ccnc(-c2cccc(C#N)n2)c1Cl [Compound 1-120] | 5 (Level 5: growth control rate is above 85%) |
| Cn1nnnc1NC(=O)c1ccnc(-c2ccccc2O)c1Cl [Compound 1-34] | 5 (Level 5: growth control rate is above 85%) |
| COc1ccc(-c2nccc(C(=O)Nc3nnnn3C)c2Cl)c(C)c1 [Compound 1-104] | 5 (Level 5: growth control rate is above 85%) |
| Cn1nnnc1NC(=O)c1ccnc(-c2cccnc2Cl)c1Cl [Compound 1-130] | 5 (Level 5: growth control rate is above 85%) |
| Cn1nnnc1NC(=O)c1ccnc(-c2cccc(CO)c2)c1Cl [Compound 1-36] | 5 (Level 5: growth control rate is above 85%) |
| Cc1ccc(-c2nccc(C(=O)Nc3nnnn3C)c2Cl)c(C)c1 [Compound 1-59] | 5 (Level 5: growth control rate is above 85%) |
| Cn1nnnc1NC(=O)c1ccnc(-c2ccc(C#N)cc2F)c1Cl [Compound 1-78] | 5 (Level 5: growth control rate is above 85%) |
| Cn1nnnc1NC(=O)c1ccnc(-c2cccc3c2oc2ccccc23)c1Cl [Compound 1-116] | 5 (Level 5: growth control rate is above 85%) |
| Cc1conc1NC(=O)c1ccnc(-c2ccc(F)cc2)c1Cl [Compound 1-1577] | 5 (Level 5: growth control rate is above 85%) |
| CCn1cc(-c2nccc(C(=O)Nc3nnnn3C)c2Cl)cn1 [Compound 1-172] | 5 (Level 5: growth control rate is above 85%) |
| Cn1nnnc1NC(=O)c1ccnc(-c2ccc(F)cc2)c1C(F)(F)F [Compound 1-198] | 5 (Level 5: growth control rate is above 85%) |

Each compound was assayed on Chenopodium album (assay: Weeding effect in post-emergence stage). Conditions: active ingredient 2000 g/ha, 3 weeks after application, fresh weight control rate.
Assay type: in vivo
Procedure, shortened: as §1

| SMILES | Weeding effect, activity level (growth control rate), Chenopodium album |
| --- | --- |
| CCn1nnnc1NC(=O)c1ccnc(-c2ccc(F)cc2)c1Cl [Compound 1-307] | 5 (Level 5: growth control rate is above 85%) |
| Cn1nnnc1NC(=O)c1ccnc(-c2ccc(N3CCOCC3)nc2)c1Cl [Compound 1-146] | 5 (Level 5: growth control rate is above 85%) |
| Cn1nnnc1NC(=O)c1ccnc(-n2cc(F)cn2)c1Cl [Compound 1-166] | 5 (Level 5: growth control rate is above 85%) |
| Cn1nnnc1NC(=O)c1ccnc(-c2cncc(C#N)c2)c1Cl [Compound 1-133] | 5 (Level 5: growth control rate is above 85%) |
| Cn1nnnc1NC(=O)c1ccnc(-c2cccnc2C(F)(F)F)c1Cl [Compound 1-141] | 5 (Level 5: growth control rate is above 85%) |
| Cn1nnnc1NC(=O)c1ccnc(-c2cccc(C#N)n2)c1Cl [Compound 1-120] | 5 (Level 5: growth control rate is above 85%) |
| Cn1nnnc1NC(=O)c1ccnc(-c2ccccc2O)c1Cl [Compound 1-34] | 5 (Level 5: growth control rate is above 85%) |
| COc1ccc(-c2nccc(C(=O)Nc3nnnn3C)c2Cl)c(C)c1 [Compound 1-104] | 5 (Level 5: growth control rate is above 85%) |
| Cn1nnnc1NC(=O)c1ccnc(-c2cccnc2Cl)c1Cl [Compound 1-130] | 5 (Level 5: growth control rate is above 85%) |
| Cn1nnnc1NC(=O)c1ccnc(-c2cccc(CO)c2)c1Cl [Compound 1-36] | 5 (Level 5: growth control rate is above 85%) |
| Cc1ccc(-c2nccc(C(=O)Nc3nnnn3C)c2Cl)c(C)c1 [Compound 1-59] | 5 (Level 5: growth control rate is above 85%) |
| Cn1nnnc1NC(=O)c1ccnc(-c2ccc(C#N)cc2F)c1Cl [Compound 1-78] | 5 (Level 5: growth control rate is above 85%) |
| Cn1nnnc1NC(=O)c1ccnc(-c2cccc3c2oc2ccccc23)c1Cl [Compound 1-116] | 5 (Level 5: growth control rate is above 85%) |
| Cc1conc1NC(=O)c1ccnc(-c2ccc(F)cc2)c1Cl [Compound 1-1577] | 5 (Level 5: growth control rate is above 85%) |
| CCn1cc(-c2nccc(C(=O)Nc3nnnn3C)c2Cl)cn1 [Compound 1-172] | 5 (Level 5: growth control rate is above 85%) |
| Cn1nnnc1NC(=O)c1ccnc(-c2ccc(F)cc2)c1C(F)(F)F [Compound 1-198] | 5 (Level 5: growth control rate is above 85%) |

These compounds were tested on Descurainia sophia (assay: Weeding effect in post-emergence stage). Conditions: active ingredient 2000 g/ha, 3 weeks after application, fresh weight control rate.
Assay type: in vivo
Procedure, shortened: as §1

| SMILES | Weeding effect, activity level (growth control rate), Descurainia sophia |
| --- | --- |
| CCn1nnnc1NC(=O)c1ccnc(-c2ccc(F)cc2)c1Cl [Compound 1-307] | 5 (Level 5: growth control rate is above 85%) |
| Cn1nnnc1NC(=O)c1ccnc(-c2ccc(N3CCOCC3)nc2)c1Cl [Compound 1-146] | 5 (Level 5: growth control rate is above 85%) |
| Cn1nnnc1NC(=O)c1ccnc(-n2cc(F)cn2)c1Cl [Compound 1-166] | 5 (Level 5: growth control rate is above 85%) |
| Cn1nnnc1NC(=O)c1ccnc(-c2cncc(C#N)c2)c1Cl [Compound 1-133] | 5 (Level 5: growth control rate is above 85%) |
| Cn1nnnc1NC(=O)c1ccnc(-c2cccnc2C(F)(F)F)c1Cl [Compound 1-141] | 5 (Level 5: growth control rate is above 85%) |
| Cn1nnnc1NC(=O)c1ccnc(-c2cccc(C#N)n2)c1Cl [Compound 1-120] | 5 (Level 5: growth control rate is above 85%) |
| Cn1nnnc1NC(=O)c1ccnc(-c2ccccc2O)c1Cl [Compound 1-34] | 5 (Level 5: growth control rate is above 85%) |
| COc1ccc(-c2nccc(C(=O)Nc3nnnn3C)c2Cl)c(C)c1 [Compound 1-104] | 5 (Level 5: growth control rate is above 85%) |
| Cn1nnnc1NC(=O)c1ccnc(-c2cccnc2Cl)c1Cl [Compound 1-130] | 5 (Level 5: growth control rate is above 85%) |
| Cn1nnnc1NC(=O)c1ccnc(-c2cccc(CO)c2)c1Cl [Compound 1-36] | 5 (Level 5: growth control rate is above 85%) |
| Cc1ccc(-c2nccc(C(=O)Nc3nnnn3C)c2Cl)c(C)c1 [Compound 1-59] | 5 (Level 5: growth control rate is above 85%) |
| Cn1nnnc1NC(=O)c1ccnc(-c2ccc(C#N)cc2F)c1Cl [Compound 1-78] | 5 (Level 5: growth control rate is above 85%) |
| Cn1nnnc1NC(=O)c1ccnc(-c2cccc3c2oc2ccccc23)c1Cl [Compound 1-116] | 5 (Level 5: growth control rate is above 85%) |
| Cc1conc1NC(=O)c1ccnc(-c2ccc(F)cc2)c1Cl [Compound 1-1577] | 5 (Level 5: growth control rate is above 85%) |
| CCn1cc(-c2nccc(C(=O)Nc3nnnn3C)c2Cl)cn1 [Compound 1-172] | 5 (Level 5: growth control rate is above 85%) |
| Cn1nnnc1NC(=O)c1ccnc(-c2ccc(F)cc2)c1C(F)(F)F [Compound 1-198] | 5 (Level 5: growth control rate is above 85%) |
